Reference: patent US10329302B2, “Bicyclic-fused heteroaryl or aryl compounds” (Pfizer Inc., priority 2014, dated 2019)
pIC50: −log10 of the molar value.

biological target: human IRAK4 FL (Full Length) (Homo sapiens (Human), UniProt Q9NWZ3); experiment: IRAK4 Enzymatic DELFIA Assay, Protocol A; assay type: biochemical; settings: human IRAK4 FL, 0.6 mM ATP (KM); read-out: IRAK4 DELFIA Protocol A IC50
Sequence (Q9NWZ3 whole entry): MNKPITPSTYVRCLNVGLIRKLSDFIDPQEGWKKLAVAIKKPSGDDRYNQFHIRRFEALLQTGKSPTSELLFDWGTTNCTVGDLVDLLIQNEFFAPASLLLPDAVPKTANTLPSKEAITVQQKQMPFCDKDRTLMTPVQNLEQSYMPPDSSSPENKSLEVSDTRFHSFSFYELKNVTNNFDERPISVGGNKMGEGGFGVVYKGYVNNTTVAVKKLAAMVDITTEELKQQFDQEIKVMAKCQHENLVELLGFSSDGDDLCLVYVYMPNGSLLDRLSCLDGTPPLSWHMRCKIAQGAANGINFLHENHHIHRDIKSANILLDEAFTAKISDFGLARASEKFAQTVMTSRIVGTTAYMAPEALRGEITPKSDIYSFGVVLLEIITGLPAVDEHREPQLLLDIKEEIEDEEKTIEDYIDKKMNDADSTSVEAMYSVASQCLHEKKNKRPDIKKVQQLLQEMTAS

Point of comparison: COc1cc2c(OC[C@H]3NC(=O)[C@@H]4[C@@H](F)[C@@H]43)ccnc2cc1C(N)=O [Example 324, 4-{[(1S,2S,5R)-6-fluoro-4-oxo-3-azabicyclo[3.1.0]hex-2-yl]methoxy}-6-methoxyquinoline-7-carboxamide], pIC50 9.22. Against it:
- COc1cc2c(OC[C@H]3NC(=O)[C@@]4(F)[C@@H]3[C@@H]4C)ccnc2cc1C(N)=O [Example 323, 4-{[(1R,2S,5S)-5-fluoro-6-methyl-4-oxo-3-azabicyclo[3.1.0]hex-2-yl]methoxy}-6-methoxyquinoline-7-carboxamide] — 0.48 log units higher, 9.70
- C[C@@H]1[C@H](F)C(=O)N[C@@H]1COc1nccc2cc(C(N)=O)c(OC3CC3)cc12 [Example 281, 7-(cyclopropyloxy)-1-{[(2S,3S,4S)-4-fluoro-3-methyl-5-oxopyrrolidin-2-yl]methoxy}isoquinoline-6-carboxamide] — 1.26 log units lower, 7.96
- COc1cc2c(OC[C@@H]3CCC(=O)N3)cncc2cc1C(N)=O [Example 206, 6-methoxy-4-{[(2S)-5-oxopyrrolidin-2-yl]methoxy}isoquinoline-7-carboxamide] — 2.55 log units lower, 6.67

test system: R848-induced TNFα production by human peripheral blood mononuclear cells (PBMCs); experiment: R848 Induced TNFα in Human PBMC Assay; assay type: cell-based; settings: Homo sapiens, PBMC, 3 h, read-out: R848-induced TNFa PBMC IC50 (nM)
Excerpt: R848 Induced TNFα in Human PBMC Assay.
This protocol is for R848-induced TNFα production by human peripheral blood mononuclear cells (PBMCs). […] The assay is used to assess cell-based potency of small molecule inhibitors of IRAK4 in the absence of serum.
The PBMCs in the interphase layer were collected and washed with PBS via centrifugation multiple times until the supernatant is clear. The purified PBMCs were re-suspended in RPMI (Roswell Park Memorial Institute) media (Sigma-Aldrich).
For the assay, a compound dilution plate containing a top concentration of 4 mM compound in DMSO was serially diluted 4-fold for 11 times. 250 nL of the compound dilution plate was spotted into a 384-well, flat bottom with lid, TC-treated, black with clear bottom, sterile, polystyrene plate (Corning Life Sciences).
10 μL of anti-TNFα antibody labeled with MSD SULFO-TAG at 50 μg/mL was added to each well and allowed to incubate overnight at 4° C.

Point of comparison: COc1cc2c(OC[C@H]3NC(=O)[C@@]4(F)[C@@H]3[C@@H]4C)ccnc2cc1C(N)=O [Example 323, 4-{[(1R,2S,5S)-5-fluoro-6-methyl-4-oxo-3-azabicyclo[3.1.0]hex-2-yl]methoxy}-6-methoxyquinoline-7-carboxamide], IC50 30 nM. Against it:
- COc1cc2c(OC[C@H]3NC(=O)[C@@H]4[C@@H](F)[C@@H]43)ccnc2cc1C(N)=O [Example 324, 4-{[(1S,2S,5R)-6-fluoro-4-oxo-3-azabicyclo[3.1.0]hex-2-yl]methoxy}-6-methoxyquinoline-7-carboxamide] — 9.2-fold higher, 277 nM
- COc1cc2c(OC[C@@H]3CCC(=O)N3)cncc2cc1C(N)=O [Example 206, 6-methoxy-4-{[(2S)-5-oxopyrrolidin-2-yl]methoxy}isoquinoline-7-carboxamide] — 150-fold higher, 4570 nM

same assay, conditions: human PBMC, absence of serum, 3 hours; read-out: R848-induced TNFa PBMC IC50

C[C@@H]1[C@H](F)C(=O)N[C@@H]1COc1nccc2cc(C(N)=O)c(OC3CC3)cc12 [Example 281, 7-(cyclopropyloxy)-1-{[(2S,3S,4S)-4-fluoro-3-methyl-5-oxopyrrolidin-2-yl]methoxy}isoquinoline-6-carboxamide] showed a pIC50 of 6.90.

biological target: human IRAK4 kinase domain (aa 154-460) (Homo sapiens (Human), UniProt Q9NWZ3); experiment: IRAK4 Enzymatic DELFIA Assay, Protocol B; assay type: biochemical; settings: not given
Sequence (Q9NWZ3 154-460): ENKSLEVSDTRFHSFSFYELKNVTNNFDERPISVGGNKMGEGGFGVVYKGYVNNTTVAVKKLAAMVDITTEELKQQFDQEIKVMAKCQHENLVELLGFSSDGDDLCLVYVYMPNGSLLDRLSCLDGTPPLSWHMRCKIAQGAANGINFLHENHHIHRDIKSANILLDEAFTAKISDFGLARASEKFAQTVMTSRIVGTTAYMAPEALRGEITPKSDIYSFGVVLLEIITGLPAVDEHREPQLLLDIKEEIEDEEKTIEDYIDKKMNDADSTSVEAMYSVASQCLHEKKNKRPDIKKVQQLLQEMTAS
Excerpt: IRAK4 Enzymatic DELFIA Assay, Protocol B.

In the case of CC(C)Oc1cc2c(OC3CC[C@@H]4CN(C(=O)CC#N)C[C@H]34)ccnc2cc1C(N)=O (single isomer, unassigned) [Example 71], the pIC50 was 6.82.

same assay, conditions: human IRAK4 kinase domain (aa 154-460), 0.6 mM ATP (KM); read-out: IRAK4 DELFIA Protocol B IC50

Point of comparison: CC(C)Oc1cc2c(OC[C@@H]3CCCN3C(=O)CC#N)nccc2cc1C(N)=O [Example 63, 1-{[(2S)-1-(cyanoacetyl)pyrrolidin-2-yl]methoxy}-7-(propan-2-yloxy)isoquinoline-6-carboxamide], pIC50 6.60. Against it:
- CC(C)Oc1cc2c(OC[C@@H]3CCCN3C)nccc2cc1C(N)=O [Example 31, 1-{[(2S)-1-methylpyrrolidin-2-yl]methoxy}-7-(propan-2-yloxy)isoquinoline-6-carboxamide] — 1.02 log units lower, 5.58
- CC(C)Oc1cc2c(OC[C@H]3CCCN(C(=O)CC#N)C3)ccnc2cc1C(N)=O [Example 93, 4-{[(3S)-1-(cyanoacetyl)piperidin-3-yl]methoxy}-6-(propan-2-yloxy)quinoline-7-carboxamide] — 0.78 log units lower, 5.82
- CC(C)Oc1cc2c(OCC3CCOC3)nccc2cc1C(N)=O (stereo not drawn) [Example 24, 7-(propan-2-yloxy)-1-(tetrahydrofuran-3-ylmethoxy)isoquinoline-6-carboxamide] — 0.29 log units lower, 6.31
- CC(C)Oc1cc2c(OC[C@H]3CCCN3)nccc2cc1C(N)=O [Example 41, 7-(propan-2-yloxy)-1-[(2R)-pyrrolidin-2-ylmethoxy]isoquinoline-6-carboxamide] — 0.97 log units lower, 5.63
- CC(C)Oc1cc2c(OCC3CN(C)CCO3)nccc2cc1C(N)=O (stereo not drawn) [Example 44, 1-[(4-methylmorpholin-2-yl)methoxy]-7-(propan-2-yloxy)isoquinoline-6-carboxamide] — 1.23 log units lower, 5.37
- CC(C)Oc1cc2c(O[C@@H]3C[C@H]4C[C@@H]3CN4)nccc2cc1C(N)=O [Example 02, 1-[(1R,4R,5R)-2-azabicyclo[2.2.1]hept-5-yloxy]-7-(propan-2-yloxy)isoquinoline-6-carboxamide] — within 0.2 log units, 6.66
- CC(C)Oc1cc2c(OC[C@@H]3CCCNC3)nccc2cc1C(N)=O [Example 48, 1-[(3R)-piperidin-3-ylmethoxy]-7-(propan-2-yloxy)isoquinoline-6-carboxamide] — within 0.2 log units, 6.44
- CC(C)Oc1cc2c(O[C@@H]3CC4CCC3C4)ccnc2cc1C(N)=O (stereo partly drawn) [Example 14, 4-[(2R)-bicyclo[2.2.1]hept-2-yloxy]-6-(propan-2-yloxy)quinoline-7-carboxamide] — within 0.2 log units, 6.64
- CC(C)Oc1cc2c(OC[C@H]3CCCNC3)nccc2cc1C(N)=O [Example 28, 1-[(3S)-piperidin-3-ylmethoxy]-7-(propan-2-yloxy)isoquinoline-6-carboxamide] — 0.72 log units lower, 5.88
- CC(C)Oc1cc2c(OCC3CCCCN3C(=O)CC#N)ccnc2cc1C(N)=O (stereo not drawn) [Example 99, 4-{[1-(cyanoacetyl)piperidin-2-yl]methoxy}-6-(propan-2-yloxy)quinoline-7-carboxamide] — 0.32 log units lower, 6.28
- CC(C)Oc1cc2c(OC3C[C@@H]4C[C@H]3CN(C(=O)CC#N)C4)ccnc2cc1C(N)=O (stereo in doubt) [Example 92, 4-{[(1S,5S,6S)-3-(cyanoacetyl)-3-azabicyclo[3.2.1]oct-6-yl]oxy}-6-(propan-2-yloxy)quinoline-7-carboxamide] — 0.27 log units lower, 6.33
- CC(C)Oc1cc2c(OCC3CCCCO3)nccc2cc1C(N)=O (stereo not drawn) [Example 25, 7-(propan-2-yloxy)-1-(tetrahydro-2H-pyran-2-ylmethoxy)isoquinoline-6-carboxamide] — 0.65 log units lower, 5.95
- CO[C@H]1CN(C(=O)CC#N)C[C@@H]1COc1ccnc2cc(C(N)=O)c(OC(C)C)cc12 [Example 96, 4-{[(3R,4R)-1-(cyanoacetyl)-4-methoxypyrrolidin-3-yl]methoxy}-6-(propan-2-yloxy)quinoline-7-carboxamide] — within 0.2 log units, 6.52
- CC(C)Oc1cc2c(OCC3(C)CCCNC3)ccnc2cc1C(N)=O (stereo not drawn) [Example 58, 4-[(3-methylpiperidin-3-yl)methoxy]-6-(propan-2-yloxy)quinoline-7-carboxamide] — 0.24 log units higher, 6.84
- CC(C)Oc1cc2c(OC[C@@H]3CNCCO3)nccc2cc1C(N)=O [Example 37, 1-[(2S)-morpholin-2-ylmethoxy]-7-(propan-2-yloxy)isoquinoline-6-carboxamide] — 1.15 log units lower, 5.45
- CC(C)Oc1cc2c(OC[C@@H]3NC(=O)CC3(C)C)nccc2cc1C(N)=O [Example 223, 1-{[(2R)-3,3-dimethyl-5-oxopyrrolidin-2-yl]methoxy}-7-(propan-2-yloxy)isoquinoline-6-carboxamide] — 1.22 log units higher, 7.82
- CC(C)Oc1cc2c(OCC3(C)CCNCC3)ccnc2cc1C(N)=O [Example 56, 4-[(4-methylpiperidin-4-yl)methoxy]-6-(propan-2-yloxy)quinoline-7-carboxamide] — 0.77 log units lower, 5.83
- CO[C@H]1CNC[C@@H]1COc1nccc2cc(C(N)=O)c(OC(C)C)cc12 [Example 34, 1-{[(3R,4R)-4-methoxypyrrolidin-3-yl]methoxy}-7-(propan-2-yloxy)isoquinoline-6-carboxamide] — 0.28 log units lower, 6.32
- CC(C)Oc1cc2c(OC(C)C3CCC3)ccnc2cc1C(N)=O (stereo not drawn) [Example 8, 4-(1-cyclobutylethoxy)-6-(propan-2-yloxy)quinoline-7-carboxamide] — 0.52 log units lower, 6.08
- CC(C)Oc1cc2c(OCC3CCCNC3)ccnc2cc1C(N)=O (stereo not drawn) [Example 59, 4-(piperidin-3-ylmethoxy)-6-(propan-2-yloxy)quinoline-7-carboxamide] — within 0.2 log units, 6.61
- CC(C)Oc1cc2c(OC[C@H]3CN(C(=O)CC#N)C[C@@H]3C)nccc2cc1C(N)=O [Example 85, 1-{[(3R,4R)-1-(cyanoacetyl)-4-methylpyrrolidin-3-yl]methoxy}-7-(propan-2-yloxy)isoquinoline-6-carboxamide] — 0.39 log units lower, 6.21
- CC(C)Oc1cc2c(OCC3(F)CCNCC3)nccc2cc1C(N)=O [Example 38, 1-[(4-fluoropiperidin-4-yl)methoxy]-7-(propan-2-yloxy)isoquinoline-6-carboxamide] — 1.27 log units lower, 5.33
- CC(C)Oc1cc2c(OCC3CNC(=O)C3)nccc2cc1C(N)=O (stereo not drawn) [Example 111, 1-[(5-oxopyrrolidin-3-yl)methoxy]-7-(propan-2-yloxy)isoquinoline-6-carboxamide] — within 0.2 log units, 6.71
